From a melting point compilation (Tetko et al.; mined from patent text by program, amines drawn as free bases though some values may be those of a salt) come the findings set out here.

Some results are limits rather than exact numbers.

As usually defined, the melting point is the temperature, or range, at which the solid turns liquid. The molecule `O=C(O)CCn1nnnc1-c1ccc2c(c1)S(=O)(=O)c1ccccc1C2=O` yielded a melting point of 143 to 145 °C.
Turning to `COC1CCN(Cc2ccc(C#CC(=O)Nc3ccc(-c4ccc(Cl)cc4)cc3)cc2)CC1`, the melting point was 145 to 146 °C.
The figure for `CCCCCCCC(=O)Oc1nc2c(N)ncnc2n1Cc1ccccc1` is 248 to 250 °C; for `COc1cc(OC)c(-c2cn[nH]c2)cc1C=CC(=O)c1ccc(C(=O)O)cc1` it is above 250 °C.
To `O=Cc1nccc(OCc2ccccc2)c1OCc1ccccc1` belongs 103 to 104 °C.
Turning to `Cc1ccc(S(=O)(=O)N(OC(C)C)c2ccc([N+](=O)[O-])cc2Cl)cc1`, the melting point fell in the range of 160 to 162 °C.
As to `O=C1NCCN(Cc2cc(=O)c(OCc3ccccc3)cn2Cc2ccccc2)C1=O`, the melting point fell in the range of 260 to 265 °C.
To `Cc1ccc(C(=O)NC(Cc2ccc(C(F)(F)F)cc2)C(=O)c2ccc(F)cc2)c2ccccc12` (configuration not stated) belongs 149 to 150 °C; to `COc1cc(Cn2cnc3cccnc32)ccc1C(=O)N(C(C)C)C1CCCCC1`, 96 to 98 °C.
With `OC(CNCC1CCCO1)c1ccccc1` (configuration not stated), the melting point fell in the range of 70 to 72 °C.
The molecule `CN(CCNc1ccc2ncc(-c3ccccc3)n2n1)C(=O)OC(C)(C)C` registered a melting point of 150 to 151 °C.
`CCOC(=O)[C@H](Cc1cccc(OCc2ccc3ccccc3c2)c1)NC(=O)C(F)(F)F`: the melting point was in the range of 103 to 111 °C.
`C=CCOC(=O)NC(C)(C)c1ccc(-c2nc(Nc3ccc(CCn4ccnc4)cc3)ncc2Cl)cc1` registered a melting point of 72 to 78 °C.
The figure for `Cc1ccc(C(=O)NCCN(C)C)cc1-n1c(C)cc(OCc2ccccc2CNC(=O)Nc2cc(C(C)(C)C)nn2-c2ccc(Cl)c(O)c2)c(Cl)c1=O` is 185 to 186 °C.
In turn, `CS(=O)(=O)c1ccc(-c2ccc(C=O)n2-c2ccc(F)cc2)cc1` registered a melting point of 111 to 112 °C.
To `Cc1ccc(-c2ccccc2-c2n[nH]c(=O)o2)cc1` belongs 123 to 125 °C.
On to `O=C1CCCN1c1ccnn1-c1c(Cl)cc(C(F)(F)F)cc1Cl`, for which the melting point fell in the range of 130 to 131 °C.
`Cc1cc(Nc2ccnc(Nc3ccc(S(=O)(=O)N(C)C4CCN(Cc5cnn(C)c5)CC4)cc3)n2)ccc1F` came in with a melting point of 125 to 150 °C.
For `CCCc1nc2c(N)nc3ccccc3c2n1CCCC1(C)OCCO1`, the melting point lay in the range of 184 to 186 °C.
For the molecule `CS(=O)(=O)c1ccc(-c2sc(CC#N)nc2-c2ccc(F)cc2)cc1`, the melting point lay within 151 to 152 °C.
The figure for `COc1ccc2c3c1OC1C(=O)C=CC4C(C2)N(C)CCC314` (configuration not stated) is 177 to 180 °C; for `O=C(O)c1ccc2c(c1)C(=O)C(=Cc1ccccc1)O2` it is 285 to 287 °C.
The figure for `COc1ccc(C2(C#Cc3ccc(N4CN=C(C)O4)s3)CCC(=O)CC2)cc1OC1CCCC1` is 94 to 95 °C; for `CCCCCNC(=O)[C@@H]1CCCN1C(=O)[C@H](C)NC(=O)OCc1ccccc1` it is 102 to 104 °C.
To `NNC(=O)c1ccc(OCc2ccccc2)c(Cl)c1` belongs 168 to 171 °C.
Turning to `Cc1c(NC(=O)CC(C)(C)C)c(C)c2c(c1C(O)CO)OCC2c1ccc(C(C)C)cc1` (configuration not stated), the melting point was in the range of 159 to 161 °C.
For `Cn1ccc2c(C(=O)c3ccccc3OCCCCl)cccc21`, the melting point came out at 60 °C.
To `COc1cc([N+](=O)[O-])ccc1N1C(=O)C(=O)N(c2cccc(Cl)c2)C1=O` belongs 176 to 178 °C.
The molecule `CC(C)(O)P(=O)(O)CCCN` gave a melting point of 243 to 244 °C.
The figure for `CS(=O)(=O)c1ccc(C(O)c2cccc3ccccc23)cc1` (configuration not stated) is 160 °C.
As to `O=c1[nH]c2ccc(CCN3CCN(c4nncc5ccccc45)CC3)cc2o1`, the melting point is 200 °C.
Regarding `CCOC(=O)c1cn(CCN(CC)CC)c2oc(CN3CCOCC3)cc2c1=O`, the melting point was in the range of 131 to 134 °C.
To `COc1c(C(C)(C)C)cc(C(N)=O)cc1C(C)(C)C` belongs 239 to 243 °C.
`CC(C)(C)C(=O)C(Br)C(c1ccc(Cl)cc1)S(=O)(=O)c1ccccc1` (configuration not stated) came in with a melting point of 167 to 168 °C.
The figure for `CCN(CC)CCCNC(=O)C(C)n1cc(-c2ccccc2)c(-c2ccccc2)n1` (configuration not stated) is 87 to 89 °C; for `CCCN(CCC)S(=O)(=O)c1ccc(C(=O)c2cc3c(cc2C)OC(C(=O)OCC)O3)cc1` (configuration not stated) it is 97 to 99 °C.
To `COC(=O)c1nc(-c2cc(F)c([Si](C)(C)C)cc2F)c(F)c(N)c1OC` belongs 137 to 139 °C; to `CC(=O)NCC(C)(C)c1ccc2nc(C)[nH]c2c1`, 198 to 201 °C; to `CCCCN(CCCC)C(=O)Nc1cccc(Br)c1`, 80 to 81 °C.
The figure for `COc1ccc(C=CC=O)cc1OC` is 74 to 77 °C.
Molecule `CC1(C)OC(=O)C(=CC2CC2)C(=O)O1` returned a melting point of 91 to 92 °C.
In the case of `COc1ccnc(CCc2nc3cc(-c4ccc(S(=O)(=O)N5CCN(c6ccc(C#N)cc6)CC5)cc4)cnc3[nH]2)c1`, the melting point was in the range of 217 to 219 °C.
The figure for `O=C(NCc1ccccc1)Nc1cc(N2CC(c3ccccc3)CC2=O)ccn1` (configuration not stated) is 165 to 166 °C.
To `CCN(CC)CCNC(=O)c1cc(Cl)nc2ccc(I)cc12` belongs 106 to 108 °C; to `CN(CCCNc1ncc(Cc2cccc(Cl)c2)c(=O)[nH]1)c1ccccn1`, 105 to 107 °C.
Regarding `CCN(CC)CCN(CCCCCSc1nc(-c2ccccc2)c(-c2ccccc2)[nH]1)C(=O)NC(C)C`, the melting point fell in the range of 58 to 59 °C.
The figure for `Cc1ccc([C@H](CC(=O)O)NC(=O)Nc2c(OCc3ccccc3)cc(C)n(Cc3ccccc3)c2=O)cc1` is 124 to 126 °C.
To `CC(C(N)=O)c1ccc(C(=O)c2cccs2)cc1` (configuration not stated) belongs 108 to 124 °C; to `COc1cc(OC)nc(NC(=O)NS(=O)(=O)Nn2cccc2C(=O)C(F)(F)F)n1`, 145 to 147 °C.
The figure for `O=c1[nH]c(=O)n(C2OC(CBr)C(O)C2F)cc1C=CBr` (configuration not stated) is 223 °C; for `CC(C)(C)c1cc([PH](=O)O)cc(C(C)(C)C)c1O` it is 106 to 111 °C.
The molecule `CCOC(=O)C1=C(COCC(=O)O)NC(C)=C(C(=O)OC)C1c1ccccc1Cl` (configuration not stated) displayed a melting point of 150 to 154 °C.
The figure for `CCOC(=O)C(Br)=C(Br)c1ccc(Cl)cc1` is 67 to 68 °C; for `Cc1nc(NC(=O)c2cc(Cl)ccc2F)sc1C(=O)NCc1ccccc1` it is 175 to 178 °C; for `CSc1ncc2c(=O)[nH]c(-c3ccccc3OCC3CC3)nc2n1` it is 186 to 187 °C.
Molecule `CCN(Cc1ccc(F)nc1)C(=S)NC` returned a melting point of 123 to 124 °C.
Molecule `COc1cc2ncnc(N3CCN(C(=S)Nc4cccc(NC(C)=O)c4)CC3)c2cc1OC` showed a melting point of 207 to 208 °C.
The figure for `CC(C)(C)NS(=O)(=O)c1ccccc1OC(F)(F)F` is 137 °C; for `CC1(C)Cc2sc(C(=O)O)cc2C1=O` it is 124 to 125 °C.
In the case of `CC1(C)CCC(C)(C)c2cc(-c3cc(-c4ccccc4O)ccc3C(=O)O)ccc21`, the melting point is 264 to 267 °C.
`C=Cc1cccc2c(Nc3ccc(O)cc3C)c(C(=O)CCC)cnc12` had a melting point of 150 to 152 °C.
To `CCc1nc2c(cnn2CC)c(NC2CCOCC2)c1CNC(=O)c1cccc(C(=O)NCc2ccc(Cl)c(Br)c2)c1` belongs 115 to 117 °C; to `Oc1ccc(-c2cc3cc(O)ccc3o2)c(Br)c1`, 195 °C; to `Oc1ccc(-c2nnc(CCCCCc3ccccc3)o2)cc1`, 118 to 123 °C.
The figure for `CC(=O)N1CCC2(CC1)CC(=O)c1cc(S(C)(=O)=O)ccc1O2` is 105 to 110 °C; for `Cc1nnc(CN2CCCC2)n1-c1ccc(Cl)cc1C(=O)c1ccccc1` it is 174 to 176 °C.
Consider `Cc1cc(-c2nc3cccnn3c2-c2ccnc(NC(=O)Nc3ccsc3)c2)ccc1F`, for which the melting point fell in the range of 234 to 235 °C.
With `CCSc1ccc(C(=O)NCc2ccc3c(c2)C(=O)N(C2CCC(=O)NC2=O)C3=O)nc1` (configuration not stated), the melting point lay within 198 to 200 °C.
As for `CCN(CCCOC)c1nc(C)nc2c1nnn2-c1ccc(C(C)C)cc1Br`, the melting point fell in the range of 109 to 110 °C.
To `O=C(NCc1ccc2c(Br)c(OC(Cc3ccccc3)C(=O)O)ccc2c1)c1ccc(Oc2cc(Cl)cc(Cl)c2)o1` (configuration not stated) belongs 86 to 100 °C; to `C#CCNC(=NCCSCc1nccs1)NC#N`, 138 to 140 °C.
To `CC(=O)C(=Cc1ccc(C#N)cc1)C(C)=O` belongs 86 to 88 °C; to `CCCCCCCCCCCc1[nH]c2cc(C(=O)O)ccc2c1C`, 153 to 156 °C.
The figure for `COc1ccc(-c2ccc(C(=O)Nc3ccc4cc(CN5C(C)(C)CCCC5(C)C)ccc4c3)cc2)cc1` is 212 to 214 °C; for `C=C(C)OC(=O)N1c2cnccc2NC(=O)C1C` (racemic) it is 236 °C.
`O=c1oc(-c2cccc(OC(F)F)c2)nc2ccccc12` registered a melting point of 84 to 87 °C.
To `OCc1cccc(Nc2nc(Oc3ccccc3)nc(Oc3ccccc3)n2)c1` belongs 49 to 52 °C; to `CC(C)[C@H](NC(=O)OCc1ccccc1)C(=O)NC(Cc1ccccc1)C(O)C(Cc1ccccc1)NC(=O)[C@@H](NC(=O)OCc1ccccc1)C(C)C` (some centres not stated), 198 to 200 °C; to `CC(C)(C)OC(=O)N1C[C@@H](O)[C@H](n2ccnn2)C1` (relative stereo), 91 to 93 °C.
The figure for `O=C1COCC(=O)NCCOCCOCCN1` is 147 to 148 °C; for `Cc1ccccc1SC(NC=O)c1sccc1C` (configuration not stated) it is 103 to 104 °C.
The figure for `Cc1cc(-c2ccc(F)cc2F)n(-c2ccc(S(N)(=O)=O)cc2)c1` is 170 to 172 °C; for `COc1cc2c(c3c1OC(C)(C)C3)C(c1ccccc1)=NC(COC(C)=O)C2` (configuration not stated) it is 168 to 169 °C; for `CC(C)[C@@H]1NC(=O)OC1(c1ccccc1)c1ccccc1` it is 250 to 251 °C.
Turning to `Cc1c[nH]n(Cc2ccc(Cl)c(Cl)c2)c1=O`, the melting point came out at 156 °C.
To `C=CCN1CCNC1=C[N+](=O)[O-]` belongs 97 to 98 °C; to `O=C(O)c1cc(-c2ccccc2)cnc1Cl`, 239 to 240 °C.
